{"source": "patent US9649313B2", "about": "“Use of ITK inhibitors for the treatment of cancer” (The University of North Carolina at Chapel Hill, priority 2012, dated 2017)", "key": {"[1]": {"system": "RPMI 8322 (ITKHI) melanoma cell line", "assay": "single cell motility assay", "type": "cell-based, Human", "settings": "10-25 nM", "description": "(§1) FIG. 4A-4E. Effects of ITK knockdown on proliferation and motility of melanoma cells. FIG. 4A) Western of lysates of VMM 39 containing each of the four shRNA constructs using rabbit monoclonal anti ITK (Y401). FIG. 4B) The four shRNA lentiviral constructs were used to transduce three melanoma cell lines, PMWK (ITKLO), VMM 39 (ITKHI), and RPMI 8322 (ITKHI). 50,000 cells were placed into each well of a 6 well plate, which was then counted 3, 5, and 6, or 7 days after plating to assess the proliferation rates of the different cell lines. FIG. 4C) Single Cell Motility assays were performed on three different melanoma cell lines, PMWK, VMM 39, and RPMI 8322. Each melanoma cell line was transduced with the four shRNA lentiviral constructs producing a total of 12 cell lines. 10,000 cells were plated on fibronectin coated glass bottom dishes. Pictures were taken once every 40 minutes for 16 hours. FIG. 4D) Cell cycle analysis of PMWK, VMM 39, and RPMI 8322 cells that have been transduced with various shRNAs. Cells were harvested after 3 hours of incubation with 5-ethynyl-2′-deoxyuridine (EdU). EdU incorporation and DNA content with FxCycle Violet were analyzed using flow cytometry. Illustrated in this panel are the percentages of cells in G0/G1 (low DNA and EdU content), S (high EdU and low-to-medium DNA content), and G2/M (Low EdU and high DNA content). FIG. 4E) Single-cell motility analysis of PMWK, VMM 39, and RPMI 8322 that have been transduced with various shRNAs. At least 50 cells were tracked for each cell line and the average motility rate was determined. Shown with asterisks are the shRNA-transduced melanoma cell lines with significant impairment in motility (P<0.001 one-way ANOVA following Bonferroni adjustments for multiple comparisons).\n(§2) FIG. 5A-5C. Effects of BI 10N inhibitor on proliferation and motility of melanoma cells. FIG. 5A) Cell motility assays were performed as described in FIG. 4A-4E; however, the inhibitor BI 10N was added to the media to decrease ITK kinase activity in parental cell lines instead of using the shRNA ITK knockdown cell lines. BI 10N was added to the media 24 hours prior to the start of the motility assay and the VivaView camera system was used to image cellular motility of the melanoma cells as described previously. […] Cells were trypsinized and counted using the Invitrogen Countess. […] The cells were counted with the Invitrogen Countess at 3, 5, and 6 or 7 days after plating to assess the proliferation rates of the different cell lines in the presence of BI 10N. […] Following 3 days of BI 10N treatment, the cells were incubated with EdU for 3 hours and were subsequently assessed for 5-ethynyl-2′-deoxyuridine (EdU) incorporation rate and DNA content with FxCycle Violet. […]"}, "[2]": {"system": "PMWK (ITKLO) melanoma cell line", "assay": "single cell motility assay", "type": "cell-based, Human", "description": "as §1, §2"}, "[3]": {"system": "VMM 39 (ITKHI) melanoma cell line", "assay": "single cell motility assay", "type": "cell-based, Human", "settings": "VMM39; 10-25 nM", "description": "as §1, §2"}, "[4]": {"system": "VMM 39 (ITKHI) xenograft tumors", "assay": "melanoma xenograft mouse model", "type": "in vivo, nude mice", "settings": "VMM 39 xenograft; 15 mg per kg in food", "protocol": "(§3) FIG. 6A-6F. Effects of BI 10N inhibitor on growth of melanoma xenografts in vivo. FIG. 6A-6C) Cell lines RPMI 8322 (ITKHI), VMM 39 (ITKHI), and A375 (ITKINT) were grown as described previously, suspended in matrigel and injected into the flanks of nude mice as described in the Materials and Methods section. The mice received either BI 10N at a concentration of 15 mpk or no treatment. Mice were then followed to assess the effect of the treatments on tumor progression. FIG. 6D-6F) Effect of BI 10N (15mpk) on tumor growth (mean and standard error of mean) in A375, RPMI 8322, and VMM 39 melanoma xenografts. […] Samples sizes are indicated in parentheses.\n(§4) Nude athymic animals were acquired through the UNC Animal Studies Core and are similar to Jackson Labs (strain 000819). Mice were aged to 10 weeks and inoculated in the hind flank with 500K cells suspended in a 50/50 solution of Hank's Solution plus 2% FBS and matrigel (BD cat#356234). Once weekly caliper measurements of the length and width of the tumors were recorded; volume was then calculated using the formula ((L^2)×W)/2. Treatment began when a tumor reached an approximate size of 60 mm^3. Mice received compounds orally via admixture with standard rodent diet (Research Diets, Inc; New Brunswick, N.J.) or the same diet for non-treated mice as per MP1U (mouse phase I unit) protocol (Roberts et al., 2012 Clin Cancer Res 18(19):5290-5303). Tissues were cut in half and either flash frozen and then stored at −80 or formalin-fixed/paraffin embedded."}, "[5]": {"system": "A375 (ITKINT) xenograft tumors", "assay": "melanoma xenograft mouse model", "type": "in vivo, nude mice", "settings": "15 mg per kg in food", "protocol": "as §3, §4"}, "[6]": {"system": "RPMI 8322 (ITKHI) xenograft tumors", "assay": "melanoma xenograft mouse model", "type": "in vivo, nude mice", "settings": "RPMI 8322 xenograft; 15 mg per kg in food", "protocol": "as §3, §4"}}}
{"smiles": "CC(C)C(C)CNCc1ccc2c(c1)[nH]/c(=N\\C(=O)c1ccc(C3=CN=NC3)s1)n2CC(C)(C)O", "note": "(stereo not shown) [BI 10N]", "values": [{"measurement": "decrease in migration", "setting": "[1]", "result": "about 50%"}, {"measurement": "concentration required for smaller changes in migration", "setting": "[2]", "result": "≥ 150", "unit": "nM"}, {"measurement": "effect on migration", "setting": "[2]; 10-25 nM", "result": "do not decrease"}, {"measurement": "decrease in migration", "setting": "[3]", "result": "about 50%"}, {"measurement": "tumor growth", "setting": "[4]", "result": "significantly slowed"}, {"measurement": "tumor growth", "setting": "[5]", "result": "did not slow"}, {"measurement": "tumor growth", "setting": "[6]", "result": "significantly slowed"}]}
